Source: PubChem BioAssay (NCI)
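Growth conditions: 96-well plates. Treatment: test compound, 48 hours, 5 concentrations. Analysis: linear interpolation between bracketing concentrations; unreached endpoints set to highest concentration. TGI denotes the concentration required for complete inhibition of growth.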

Key:
Experiment in all cases: NCI anticancer screen, dose series, 48 h
NCI-H226 lung = system: NCI-H226 lung
SN12C renal = system: SN12C renal
SW-620 colon = system: SW-620 colon
SF-295 CNS = system: SF-295 CNS
786-0 renal = system: 786-0 renal
UO-31 renal = system: UO-31 renal
SK-OV-3 ovarian = system: SK-OV-3 ovarian
OVCAR-5 ovarian = system: OVCAR-5 ovarian
NCI-H460 lung = system: NCI-H460 lung
SK-MEL-28 melanoma = system: SK-MEL-28 melanoma
CCRF-CEM leukemia = system: CCRF-CEM leukemia
HCT-15 colon = system: HCT-15 colon
SK-MEL-2 melanoma = system: SK-MEL-2 melanoma
OVCAR-4 ovarian = system: OVCAR-4 ovarian
COLO 205 colon = system: COLO 205 colon
NCI/ADR-RES ovarian = system: NCI/ADR-RES ovarian
DU-145 prostate = system: DU-145 prostate
MCF7 breast = system: MCF7 breast
T-47D breast = system: T-47D breast

## CCOC(=O)c1c(C(F)(F)F)oc2c1ccc1nc3nonc3nc12
NCI-H226 lung
  TGI: 36.1 µM
SN12C renal
  TGI: 31.7 µM
SW-620 colon
  TGI: 35.3 µM
SF-295 CNS
  TGI: > 63.3 µM
786-0 renal
  TGI: 25.3 µM
UO-31 renal
  TGI: 33.4 µM
SK-OV-3 ovarian
  TGI: 35.7 µM
OVCAR-5 ovarian
  TGI: 31.6 µM
NCI-H460 lung
  TGI: 49.6 µM
SK-MEL-28 melanoma
  TGI: 27.3 µM
CCRF-CEM leukemia
  TGI: 5.69 µM
HCT-15 colon
  TGI: 32.6 µM
SK-MEL-2 melanoma
  TGI: 33.8 µM
OVCAR-4 ovarian
  TGI: 24.9 µM
COLO 205 colon
  TGI: 55.1 µM

## Nc1cnc2c(c1)c(=O)nc1n2CCS1
NCI/ADR-RES ovarian
  TGI: > 100 µM
NCI-H226 lung
  TGI: > 100 µM
SN12C renal
  TGI: > 100 µM
SW-620 colon
  TGI: > 100 µM
SF-295 CNS
  TGI: > 100 µM
786-0 renal
  TGI: > 100 µM
UO-31 renal
  TGI: > 100 µM
SK-OV-3 ovarian
  TGI: > 100 µM
OVCAR-5 ovarian
  TGI: > 100 µM
NCI-H460 lung
  TGI: > 100 µM
SK-MEL-28 melanoma
  TGI: > 100 µM
CCRF-CEM leukemia
  TGI: > 100 µM
DU-145 prostate
  TGI: > 100 µM
HCT-15 colon
  TGI: > 100 µM
SK-MEL-2 melanoma
  TGI: > 100 µM
OVCAR-4 ovarian
  TGI: > 100 µM
COLO 205 colon
  TGI: > 100 µM
MCF7 breast
  TGI: > 100 µM

## CCCOCN1COCN=C1NC#N
NCI-H226 lung
  TGI: > 100 µM
SN12C renal
  TGI: > 100 µM
SW-620 colon
  TGI: 32.3 µM
SF-295 CNS
  TGI: > 100 µM
786-0 renal
  TGI: 45.1 µM
UO-31 renal
  TGI: > 100 µM
SK-OV-3 ovarian
  TGI: > 100 µM
OVCAR-5 ovarian
  TGI: > 100 µM
NCI-H460 lung
  TGI: > 100 µM
SK-MEL-28 melanoma
  TGI: > 100 µM
HCT-15 colon
  TGI: 32.6 µM
SK-MEL-2 melanoma
  TGI: > 100 µM
OVCAR-4 ovarian
  TGI: > 100 µM
COLO 205 colon
  TGI: 32.6 µM

## CO[C@@]12CC(=O)/C(=C(O)\C=C\c3ccccc3)C(=O)[C@]1(OC)Cc1ccccc1O2
NCI-H226 lung
  TGI: 50.2 µM
SN12C renal
  TGI: > 100 µM
SW-620 colon
  TGI: > 100 µM
SF-295 CNS
  TGI: > 100 µM
786-0 renal
  TGI: 70.2 µM
UO-31 renal
  TGI: > 100 µM
SK-OV-3 ovarian
  TGI: > 100 µM
OVCAR-5 ovarian
  TGI: 82.8 µM
NCI-H460 lung
  TGI: 88.1 µM
SK-MEL-28 melanoma
  TGI: 59.8 µM
CCRF-CEM leukemia
  TGI: 84.6 µM
HCT-15 colon
  TGI: 51.7 µM
SK-MEL-2 melanoma
  TGI: > 100 µM
OVCAR-4 ovarian
  TGI: > 100 µM
COLO 205 colon
  TGI: > 100 µM

## COC1=CC(=O)c2ccccc2C1(C)C1=NC(C)(C)CO1 (stereo unspecified)
NCI-H226 lung
  TGI: > 100 µM
SN12C renal
  TGI: > 100 µM
SW-620 colon
  TGI: > 100 µM
SF-295 CNS
  TGI: > 100 µM
786-0 renal
  TGI: > 100 µM
UO-31 renal
  TGI: > 100 µM
SK-OV-3 ovarian
  TGI: > 100 µM
NCI-H460 lung
  TGI: > 100 µM
SK-MEL-28 melanoma
  TGI: > 100 µM
CCRF-CEM leukemia
  TGI: > 100 µM
HCT-15 colon
  TGI: > 100 µM
SK-MEL-2 melanoma
  TGI: > 100 µM
OVCAR-4 ovarian
  TGI: > 100 µM
COLO 205 colon
  TGI: > 100 µM

## COc1cccc(/C=C2\C(=O)N(C(=O)Cc3ccccc3)N=C2C)c1
NCI-H226 lung
  TGI: > 100 µM
SN12C renal
  TGI: > 100 µM
SW-620 colon
  TGI: > 100 µM
SF-295 CNS
  TGI: > 100 µM
786-0 renal
  TGI: > 100 µM
UO-31 renal
  TGI: > 100 µM
OVCAR-5 ovarian
  TGI: > 100 µM
SK-MEL-28 melanoma
  TGI: > 100 µM
CCRF-CEM leukemia
  TGI: > 100 µM
HCT-15 colon
  TGI: > 100 µM
SK-MEL-2 melanoma
  TGI: > 100 µM
OVCAR-4 ovarian
  TGI: > 100 µM
COLO 205 colon
  TGI: > 100 µM

## CC1(C)O[C@@H](CP(c2ccccc2)c2ccccc2)[C@H](CP(c2ccccc2)c2ccccc2)O1
NCI/ADR-RES ovarian
  TGI: 36 µM
NCI-H226 lung
  TGI: 51.1 µM
SN12C renal
  TGI: 18.7 µM
SW-620 colon
  TGI: 38.3 µM
SF-295 CNS
  TGI: 57.7 µM
786-0 renal
  TGI: 22.8 µM
SK-OV-3 ovarian
  TGI: > 100 µM
OVCAR-5 ovarian
  TGI: 54.7 µM
NCI-H460 lung
  TGI: > 100 µM
T-47D breast
  TGI: 29.8 µM
SK-MEL-28 melanoma
  TGI: 28 µM
CCRF-CEM leukemia
  TGI: > 100 µM
DU-145 prostate
  TGI: > 100 µM
HCT-15 colon
  TGI: 44.5 µM
OVCAR-4 ovarian
  TGI: > 100 µM
COLO 205 colon
  TGI: 12.4 µM

## COCC12CC(CC1=O)C1C2ON2c3ccccc3C(=O)C12c1ccccc1 (stereo unspecified)
NCI-H226 lung
  TGI: > 100 µM
SN12C renal
  TGI: > 100 µM
SW-620 colon
  TGI: > 100 µM
SF-295 CNS
  TGI: > 100 µM
786-0 renal
  TGI: > 100 µM
UO-31 renal
  TGI: > 100 µM
SK-OV-3 ovarian
  TGI: > 100 µM
SK-MEL-28 melanoma
  TGI: > 100 µM
CCRF-CEM leukemia
  TGI: > 100 µM
HCT-15 colon
  TGI: > 100 µM
OVCAR-4 ovarian
  TGI: > 100 µM
COLO 205 colon
  TGI: > 100 µM

## C1=c2ccccc2=C2C(=C(c3ccccc3)C(c3ccccc3)=NN2c2ccccc2)S1
NCI-H226 lung
  TGI: > 100 µM
SN12C renal
  TGI: > 100 µM
SW-620 colon
  TGI: > 100 µM
SF-295 CNS
  TGI: > 100 µM
786-0 renal
  TGI: > 100 µM
UO-31 renal
  TGI: > 100 µM
SK-OV-3 ovarian
  TGI: > 100 µM
OVCAR-5 ovarian
  TGI: > 100 µM
NCI-H460 lung
  TGI: > 100 µM
SK-MEL-28 melanoma
  TGI: > 100 µM
CCRF-CEM leukemia
  TGI: > 100 µM
HCT-15 colon
  TGI: > 100 µM
SK-MEL-2 melanoma
  TGI: > 100 µM
OVCAR-4 ovarian
  TGI: > 100 µM
COLO 205 colon
  TGI: > 100 µM

## O=C1C2Nc3ccccc3SC2C(=O)N1c1cccc([N+](=O)[O-])c1 (stereo unspecified)
NCI-H226 lung
  TGI: > 100 µM
SN12C renal
  TGI: > 100 µM
SW-620 colon
  TGI: > 100 µM
SF-295 CNS
  TGI: > 100 µM
786-0 renal
  TGI: > 100 µM
UO-31 renal
  TGI: > 100 µM
SK-OV-3 ovarian
  TGI: > 100 µM
OVCAR-5 ovarian
  TGI: > 100 µM
NCI-H460 lung
  TGI: > 100 µM
SK-MEL-28 melanoma
  TGI: > 100 µM
CCRF-CEM leukemia
  TGI: > 100 µM
HCT-15 colon
  TGI: > 100 µM
SK-MEL-2 melanoma
  TGI: > 100 µM
OVCAR-4 ovarian
  TGI: > 100 µM
COLO 205 colon
  TGI: > 100 µM

## COC(=O)C(=O)C1CCCCC(C2=NC3NN=C(N)N3C2=O)C1=O (stereo unspecified)
NCI-H226 lung
  TGI: > 100 µM
SN12C renal
  TGI: > 100 µM
SW-620 colon
  TGI: > 100 µM
SF-295 CNS
  TGI: > 100 µM
786-0 renal
  TGI: > 100 µM
UO-31 renal
  TGI: > 100 µM
SK-OV-3 ovarian
  TGI: > 100 µM
OVCAR-5 ovarian
  TGI: > 100 µM
NCI-H460 lung
  TGI: > 100 µM
SK-MEL-28 melanoma
  TGI: > 100 µM
CCRF-CEM leukemia
  TGI: > 100 µM
HCT-15 colon
  TGI: > 100 µM
SK-MEL-2 melanoma
  TGI: > 100 µM
OVCAR-4 ovarian
  TGI: > 100 µM
COLO 205 colon
  TGI: > 100 µM

## COc1cc(C2C(Cl)C(=O)N2NC(=O)Cc2ccccc2)ccc1O (stereo unspecified)
NCI-H226 lung
  TGI: > 100 µM
SN12C renal
  TGI: > 100 µM
SW-620 colon
  TGI: > 100 µM
SF-295 CNS
  TGI: > 100 µM
786-0 renal
  TGI: > 100 µM
UO-31 renal
  TGI: > 100 µM
SK-OV-3 ovarian
  TGI: > 100 µM
OVCAR-5 ovarian
  TGI: > 100 µM
NCI-H460 lung
  TGI: > 100 µM
SK-MEL-28 melanoma
  TGI: > 100 µM
CCRF-CEM leukemia
  TGI: > 100 µM
HCT-15 colon
  TGI: > 100 µM
SK-MEL-2 melanoma
  TGI: > 100 µM
OVCAR-4 ovarian
  TGI: > 100 µM
COLO 205 colon
  TGI: > 100 µM

## COc1ccc(/C(Cl)=C/c2ccc(Cl)c(Cl)c2)cc1
NCI-H226 lung
  TGI: 53.2 µM
SN12C renal
  TGI: > 100 µM
SW-620 colon
  TGI: > 100 µM
SF-295 CNS
  TGI: 74.9 µM
786-0 renal
  TGI: > 100 µM
UO-31 renal
  TGI: > 100 µM
SK-OV-3 ovarian
  TGI: > 100 µM
SK-MEL-28 melanoma
  TGI: > 100 µM
CCRF-CEM leukemia
  TGI: 47.8 µM
HCT-15 colon
  TGI: 97.3 µM
OVCAR-4 ovarian
  TGI: > 100 µM
COLO 205 colon
  TGI: 54 µM

## O=C(/C=C/c1ccc(Cl)c(Cl)c1)C1CCC(Cl)CC1 (stereo unspecified)
NCI-H226 lung
  TGI: 94.8 µM
SN12C renal
  TGI: 32.7 µM
SW-620 colon
  TGI: 31.7 µM
SF-295 CNS
  TGI: 35.8 µM
786-0 renal
  TGI: 30.6 µM
UO-31 renal
  TGI: 33.9 µM
SK-OV-3 ovarian
  TGI: 33 µM
OVCAR-5 ovarian
  TGI: 43.3 µM
NCI-H460 lung
  TGI: 73.8 µM
SK-MEL-28 melanoma
  TGI: 31.4 µM
HCT-15 colon
  TGI: 35.1 µM
OVCAR-4 ovarian
  TGI: 39.6 µM
COLO 205 colon
  TGI: 50.3 µM

## O=C1C=C(Nc2ccccc2C(=O)CC(=O)C(=O)Nc2ccc(Cl)c(Cl)c2)c2ccccc2C1=O
NCI-H226 lung
  TGI: > 100 µM
SN12C renal
  TGI: > 100 µM
SF-295 CNS
  TGI: > 100 µM
786-0 renal
  TGI: > 100 µM
UO-31 renal
  TGI: > 100 µM
SK-OV-3 ovarian
  TGI: > 100 µM
OVCAR-5 ovarian
  TGI: > 100 µM
NCI-H460 lung
  TGI: > 100 µM
SK-MEL-28 melanoma
  TGI: 37.4 µM
CCRF-CEM leukemia
  TGI: > 100 µM
HCT-15 colon
  TGI: > 100 µM
SK-MEL-2 melanoma
  TGI: > 100 µM
OVCAR-4 ovarian
  TGI: > 100 µM
COLO 205 colon
  TGI: > 100 µM
